pIC50: −log10 of the molar value.
Tests used:
Assay type in all cases: biochemical
[1] = target: p110β/p85α (Homo sapiens, UniProt P42338); test: Transcreener KINASE Assay, kinase inhibition of p110β/p85α; details: for PI3Kβ IH % @ 1 uM: 1 uM test compound; for pIC50: read-out: PI3Kβ IC50
How it was run: (§1)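 ADP formation read by far-red competitive FP immunoassay (60 min RT detection step) after an 80 min RT kinase reaction; substrate added as a 30 uM PIP2/10 uM ATP solution (not final).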

[2] = target: p110γ (Homo sapiens, UniProt P48736); test: Transcreener KINASE Assay, kinase inhibition of p110γ; details: for PI3Kγ IH % @ 1 uM: 1 uM test compound; for pIC50: read-out: PI3Kγ IC50
p110γ, sequence (P48736 whole entry, canonical isoform): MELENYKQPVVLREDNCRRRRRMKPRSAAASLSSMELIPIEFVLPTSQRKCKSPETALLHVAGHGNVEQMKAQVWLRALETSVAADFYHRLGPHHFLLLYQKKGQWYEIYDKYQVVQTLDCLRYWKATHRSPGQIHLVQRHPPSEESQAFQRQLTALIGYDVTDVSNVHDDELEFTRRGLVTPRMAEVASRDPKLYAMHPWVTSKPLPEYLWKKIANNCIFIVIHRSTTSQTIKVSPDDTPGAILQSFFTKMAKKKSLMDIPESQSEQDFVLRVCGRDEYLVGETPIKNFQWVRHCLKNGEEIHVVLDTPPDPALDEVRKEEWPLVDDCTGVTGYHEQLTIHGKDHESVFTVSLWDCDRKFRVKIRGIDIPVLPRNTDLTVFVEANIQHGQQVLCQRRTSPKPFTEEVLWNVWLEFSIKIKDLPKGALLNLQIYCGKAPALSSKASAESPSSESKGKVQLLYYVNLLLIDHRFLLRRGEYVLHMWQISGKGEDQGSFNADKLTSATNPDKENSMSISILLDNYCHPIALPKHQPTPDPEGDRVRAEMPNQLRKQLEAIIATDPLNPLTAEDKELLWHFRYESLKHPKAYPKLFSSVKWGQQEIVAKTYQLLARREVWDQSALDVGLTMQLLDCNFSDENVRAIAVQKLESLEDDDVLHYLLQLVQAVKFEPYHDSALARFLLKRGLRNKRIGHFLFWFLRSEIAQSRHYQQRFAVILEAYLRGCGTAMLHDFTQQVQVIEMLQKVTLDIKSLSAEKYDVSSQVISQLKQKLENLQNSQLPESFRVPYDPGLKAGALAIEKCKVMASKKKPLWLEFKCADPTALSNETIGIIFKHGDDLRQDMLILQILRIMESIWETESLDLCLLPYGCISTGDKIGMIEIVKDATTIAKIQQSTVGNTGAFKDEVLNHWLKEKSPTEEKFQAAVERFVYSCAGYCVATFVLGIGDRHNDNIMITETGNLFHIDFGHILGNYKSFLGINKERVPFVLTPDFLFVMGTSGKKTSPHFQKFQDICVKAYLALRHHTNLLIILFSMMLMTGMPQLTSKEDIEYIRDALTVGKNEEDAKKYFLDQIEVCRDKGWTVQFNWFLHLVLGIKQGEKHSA
How it was run: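 Kinase activity is monitored as ADP formation, detected by competitive fluorescence polarization with a far-red tracer. Recombinant isoform complexes react for 80 min at room temperature before a 60 min detection step. IC50 values come from fitted dose-response data.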

[3] = target: p110δ/p85α (Homo sapiens, UniProt O00329); test: Transcreener KINASE Assay, kinase inhibition of p110δ/p85α; details: for PI3Kδ IH % @ 1 uM: 1 uM test compound; for pIC50: read-out: PI3Kδ IC50
p110δ/p85α, sequence (O00329 whole entry): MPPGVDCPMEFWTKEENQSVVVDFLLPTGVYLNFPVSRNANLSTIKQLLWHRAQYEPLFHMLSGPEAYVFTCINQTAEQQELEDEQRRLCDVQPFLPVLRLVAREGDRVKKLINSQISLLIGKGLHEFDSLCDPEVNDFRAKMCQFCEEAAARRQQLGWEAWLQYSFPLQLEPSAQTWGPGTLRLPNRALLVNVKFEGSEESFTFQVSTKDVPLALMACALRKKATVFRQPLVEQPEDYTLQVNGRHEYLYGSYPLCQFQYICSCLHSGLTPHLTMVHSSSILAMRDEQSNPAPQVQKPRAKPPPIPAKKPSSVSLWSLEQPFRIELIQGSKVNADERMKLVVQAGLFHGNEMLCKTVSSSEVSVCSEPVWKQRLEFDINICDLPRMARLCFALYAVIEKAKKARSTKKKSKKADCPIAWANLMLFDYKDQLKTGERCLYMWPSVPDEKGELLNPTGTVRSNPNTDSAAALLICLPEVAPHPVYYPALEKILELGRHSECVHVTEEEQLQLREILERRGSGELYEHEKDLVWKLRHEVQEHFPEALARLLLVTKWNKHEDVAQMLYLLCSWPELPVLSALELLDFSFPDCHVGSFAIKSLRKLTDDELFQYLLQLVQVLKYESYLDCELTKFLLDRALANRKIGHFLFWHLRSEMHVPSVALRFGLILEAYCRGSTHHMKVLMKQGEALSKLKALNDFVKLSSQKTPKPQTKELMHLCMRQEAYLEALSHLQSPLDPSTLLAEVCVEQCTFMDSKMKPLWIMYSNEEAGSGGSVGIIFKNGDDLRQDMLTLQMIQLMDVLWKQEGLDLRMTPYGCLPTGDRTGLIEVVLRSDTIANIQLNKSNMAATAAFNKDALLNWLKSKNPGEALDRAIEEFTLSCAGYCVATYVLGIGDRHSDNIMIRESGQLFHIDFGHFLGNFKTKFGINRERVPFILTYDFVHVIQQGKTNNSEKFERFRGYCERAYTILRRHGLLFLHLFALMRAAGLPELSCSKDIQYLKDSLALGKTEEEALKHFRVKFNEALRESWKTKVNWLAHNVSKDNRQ
p110δ/p85α, sequence (P27986 whole entry partner): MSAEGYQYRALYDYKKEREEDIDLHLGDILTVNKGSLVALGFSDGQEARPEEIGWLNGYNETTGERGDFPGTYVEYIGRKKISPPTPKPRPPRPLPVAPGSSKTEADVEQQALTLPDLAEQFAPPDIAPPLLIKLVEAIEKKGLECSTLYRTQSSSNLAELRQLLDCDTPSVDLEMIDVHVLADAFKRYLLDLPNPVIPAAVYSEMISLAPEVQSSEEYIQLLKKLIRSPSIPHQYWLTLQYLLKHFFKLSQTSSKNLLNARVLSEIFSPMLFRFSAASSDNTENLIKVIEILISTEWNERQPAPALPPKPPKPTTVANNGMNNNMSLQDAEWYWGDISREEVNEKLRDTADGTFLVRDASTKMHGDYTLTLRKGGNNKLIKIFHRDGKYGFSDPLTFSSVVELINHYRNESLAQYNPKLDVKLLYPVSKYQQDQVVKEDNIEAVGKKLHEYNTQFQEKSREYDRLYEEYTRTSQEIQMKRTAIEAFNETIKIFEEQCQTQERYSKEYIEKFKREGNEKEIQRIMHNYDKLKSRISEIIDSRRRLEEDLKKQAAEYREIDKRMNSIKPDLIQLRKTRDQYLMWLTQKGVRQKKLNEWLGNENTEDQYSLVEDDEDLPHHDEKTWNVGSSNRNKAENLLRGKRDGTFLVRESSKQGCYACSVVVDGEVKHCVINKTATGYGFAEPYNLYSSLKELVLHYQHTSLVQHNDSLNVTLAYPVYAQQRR
How it was run: as §1

p110β/p85α, sequence (P42338 whole entry): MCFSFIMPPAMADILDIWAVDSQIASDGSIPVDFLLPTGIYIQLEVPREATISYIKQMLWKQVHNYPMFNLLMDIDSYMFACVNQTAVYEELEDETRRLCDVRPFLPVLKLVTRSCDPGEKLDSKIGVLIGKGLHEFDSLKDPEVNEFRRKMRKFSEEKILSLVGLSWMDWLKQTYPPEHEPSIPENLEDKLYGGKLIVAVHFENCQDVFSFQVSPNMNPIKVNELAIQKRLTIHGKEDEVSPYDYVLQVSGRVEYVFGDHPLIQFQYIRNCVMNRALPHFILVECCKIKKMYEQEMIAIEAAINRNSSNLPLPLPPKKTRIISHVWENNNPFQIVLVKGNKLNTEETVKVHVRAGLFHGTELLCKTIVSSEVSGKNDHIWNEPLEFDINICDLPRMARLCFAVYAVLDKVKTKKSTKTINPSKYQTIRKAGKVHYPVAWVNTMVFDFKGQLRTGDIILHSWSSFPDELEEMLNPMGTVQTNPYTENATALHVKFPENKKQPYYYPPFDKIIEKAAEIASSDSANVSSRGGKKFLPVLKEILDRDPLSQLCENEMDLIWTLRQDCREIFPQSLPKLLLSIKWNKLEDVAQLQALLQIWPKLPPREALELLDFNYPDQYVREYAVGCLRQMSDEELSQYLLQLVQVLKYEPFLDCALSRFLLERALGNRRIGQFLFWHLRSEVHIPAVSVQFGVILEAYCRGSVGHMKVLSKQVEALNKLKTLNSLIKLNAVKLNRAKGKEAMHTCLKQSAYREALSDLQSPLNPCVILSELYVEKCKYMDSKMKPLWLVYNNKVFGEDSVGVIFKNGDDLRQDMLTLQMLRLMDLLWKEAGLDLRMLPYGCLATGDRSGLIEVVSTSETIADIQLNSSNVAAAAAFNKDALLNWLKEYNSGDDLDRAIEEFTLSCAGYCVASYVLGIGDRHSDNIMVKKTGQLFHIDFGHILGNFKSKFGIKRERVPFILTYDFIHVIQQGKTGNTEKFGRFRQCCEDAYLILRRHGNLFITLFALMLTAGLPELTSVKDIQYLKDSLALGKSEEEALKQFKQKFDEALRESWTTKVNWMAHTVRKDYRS
p110β/p85α, sequence (P27986 2-724 partner): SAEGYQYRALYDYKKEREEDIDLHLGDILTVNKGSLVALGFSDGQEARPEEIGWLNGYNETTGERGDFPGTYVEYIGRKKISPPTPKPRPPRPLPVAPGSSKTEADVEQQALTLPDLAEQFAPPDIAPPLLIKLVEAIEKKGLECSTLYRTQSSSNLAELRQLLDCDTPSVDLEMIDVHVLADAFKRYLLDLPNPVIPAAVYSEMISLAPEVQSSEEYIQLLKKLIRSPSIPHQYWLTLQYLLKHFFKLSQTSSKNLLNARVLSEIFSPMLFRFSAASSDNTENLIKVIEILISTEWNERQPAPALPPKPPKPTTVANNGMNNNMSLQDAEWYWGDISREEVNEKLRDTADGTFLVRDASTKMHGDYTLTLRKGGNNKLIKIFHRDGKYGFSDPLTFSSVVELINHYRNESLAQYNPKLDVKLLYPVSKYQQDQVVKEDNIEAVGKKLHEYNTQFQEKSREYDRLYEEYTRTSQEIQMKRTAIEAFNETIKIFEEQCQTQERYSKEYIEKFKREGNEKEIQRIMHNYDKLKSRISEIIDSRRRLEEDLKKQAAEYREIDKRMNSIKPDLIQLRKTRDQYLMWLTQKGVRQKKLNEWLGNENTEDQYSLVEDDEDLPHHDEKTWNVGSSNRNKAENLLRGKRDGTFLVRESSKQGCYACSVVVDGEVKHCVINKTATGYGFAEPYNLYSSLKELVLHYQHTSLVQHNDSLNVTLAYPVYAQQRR

PI3Kβ IH % @ 1 uM [1] [%] | PI3Kγ IH % @ 1 uM [2] [%] | pIC50 [2] | PI3Kδ IH % @ 1 uM [3] [%] | pIC50 [3] | pIC50 [1] | Compound
28.2 | 93.4 | 6.72 | 90.9 | 6.71 | – | CNc1ncnc(N2CCC[C@H]2c2nn3ccc(Cl)c3c(=O)n2-c2ccccc2)n1 [Compound 200]
25.3 | >100 | 7.31 | >100 | 7.72 | – | Cc1nc(N)nc(N2CCC[C@H]2c2nn3ccc(Cl)c3c(=O)n2-c2ccccc2)n1 [Compound 201]
23.3 | 65.3 | – | 94.6 | 7.00 | – | O=c1c2c(Cl)ccn2nc([C@@H]2CCCCN2c2ncnc3[nH]cnc23)n1-c1ccccc1 [Compound 203]
28.9 | 84.2 | 6.60 | 85.1 | 6.96 | – | C[S+]([O-])c1c[nH]c2ncnc(N3CC[C@H]3c3nn4ccc(F)c4c(=O)n3-c3ccccc3)c12 (stereo partly shown) [Compound 204]
21.6 | 76.1 | 6.64 | 76.1 | 7.13 | – | Cc1nc(N)nc(N2CC[C@H]2c2nn3ccc(Cl)c3c(=O)n2-c2ccccc2)n1 [Compound 205]
80.4 | >100 | – | >100 | 9.00 | 6.53 | N#Cc1cnc(N)nc1N1CCC[C@H]1c1nn2ccc(Cl)c2c(=O)n1-c1ccccc1 [Compound 207]
81.7 | 92.2 | 8.52 | 97.4 | 8.40 | 7.05 | CC(=O)c1c[nH]c2ncnc(N3CCC[C@H]3c3nn4ccc(Cl)c4c(=O)n3-c3ccc(F)cc3)c12 [Compound 208]
53.5 | 89.6 | 7.52 | 94.2 | 7.92 | – | C[S+]([O-])c1c[nH]c2ncnc(N3CCC[C@H]3c3nn4ccc(Cl)c4c(=O)n3-c3ccc(F)cc3)c12 (stereo partly shown) [Compound 209]
69.1 | 92.0 | – | 98.6 | 8.70 | 6.72 | CC(=O)c1c[nH]c2ncnc(N3CCC[C@H]3c3nn4ccc(Cl)c4c(=O)n3-c3cccc(F)c3)c12 [Compound 210]
88.3 | 92.2 | – | 98.4 | 9.30 | 7.29 | CC(=O)c1c[nH]c2ncnc(N3CCC[C@H]3c3nn4ccc(Cl)c4c(=O)n3-c3ccccc3)c12 [Compound 211]
37.0 | >100 | – | 95.3 | 7.92 | – | N#Cc1cnc(N)nc1N1CC[C@H]1c1nn2ccc(Cl)c2c(=O)n1-c1ccccc1 [Compound 212]
65.7 | >100 | 7.92 | 99.7 | 9.00 | 6.57 | O=c1c2c(Cl)ccn2nc([C@@H]2C[C@H](F)CN2c2ncnc3[nH]cnc23)n1-c1cccc(F)c1 [Compound 214]
32.8 | 88.1 | 6.87 | 98.5 | 7.28 | – | Nc1ncc(F)c(N2CCC[C@H]2c2nn3ccc(Cl)c3c(=O)n2-c2ccccc2)n1 [Compound 215]
65.1 | 91.8 | 8.52 | 96.5 | 8.70 | – | CC(=O)c1c[nH]c2ncnc(N3C[C@@H](F)C[C@H]3c3nn4ccc(Cl)c4c(=O)n3-c3cccc(F)c3)c12 [Compound 216]
85.0 | 95.7 | – | 97.3 | 8.70 | 6.78 | CC(=O)c1c[nH]c2ncnc(N3CCC[C@H]3c3nn4ccc(F)c4c(=O)n3-c3ccccc3)c12 [Compound 218]
75.1 | 87.4 | 7.85 | 98.4 | 8.52 | 6.45 | C[S+]([O-])c1c[nH]c2ncnc(N3CCC[C@H]3c3nn4ccc(F)c4c(=O)n3-c3ccccc3)c12 (stereo partly shown) [Compound 219]
25.1 | 54.8 | – | 84.8 | 6.62 | – | O=c1c2c(Cl)ccn2nc([C@@H]2CCCN2c2ncnc3[nH]nnc23)n1-c1ccccc1 [Compound 220]
16.3 | 88.6 | 7.62 | 68.0 | – | – | CSc1n[nH]c2ncnc(N3CCC[C@H]3c3nn4ccc(Cl)c4c(=O)n3-c3ccccc3)c12 [Compound 221]
40.5 | 88.1 | 7.68 | 43.0 | – | – | CSc1n[nH]c2ncnc(N3CC[C@H]3c3nn4ccc(Cl)c4c(=O)n3-c3ccccc3)c12 [Compound 222]
22.9 | 71.6 | – | 81.0 | 7.23 | – | Nc1ncc(Cl)c(N2CC[C@H]2c2nn3ccc(Cl)c3c(=O)n2-c2ccccc2)n1 [Compound 223]
22.7 | >100 | – | 85.9 | 7.22 | – | C#Cc1cnc(N)nc1N1CC[C@H]1c1nn2ccc(Cl)c2c(=O)n1-c1ccccc1 [Compound 224]
96.3 | >100 | 8.30 | >100 | 9.00 | 7.27 | N#Cc1c[nH]c2ncnc(N3C[C@@H](F)C[C@H]3c3nn4ccc(F)c4c(=O)n3-c3ccccc3)c12 [Compound 225]
41.8 | >100 | 7.52 | 98.7 | 8.05 | – | COCCNC(=O)c1c[nH]c2ncnc(N3CCC[C@H]3c3nn4ccc(Cl)c4c(=O)n3-c3ccccc3)c12 [Compound 226]
59.6 | >100 | 7.74 | >100 | 8.30 | – | N#Cc1cnc(N)nc1N1C[C@@H](F)C[C@H]1c1nn2ccc(F)c2c(=O)n1-c1ccccc1 [Compound 227]
13.8 | 59.9 | – | 74.6 | 6.75 | – | COCCNC(=O)c1c[nH]c2ncnc(N3CC[C@H]3c3nn4ccc(Cl)c4c(=O)n3-c3ccccc3)c12 [Compound 228]
81.5 | 90.4 | 8.70 | 97.6 | 8.52 | 6.58 | N#Cc1cnc(N)nc1N1C[C@@H](F)C[C@H]1c1nn2ccc(Cl)c2c(=O)n1-c1ccccc1 [Compound 229]
75.2 | 87.3 | 8.15 | >100 | 8.52 | 6.55 | N#Cc1cnc(N)nc1N1CCC[C@H]1c1nn2ccc(F)c2c(=O)n1-c1ccccc1 [Compound 230]

Source: patent publication US20150307520A1, “NOVEL HETEROARYL AND HETEROCYCLE COMPOUNDS, COMPOSITIONS AND METHODS THEREOF” (HUTCHISON MEDIPHARMA LIMITED, priority 2012, published 2015)
